Reference: paper PMC3406087, “The Molecular Basis of Drug Resistance against Hepatitis C Virus NS3/4A Protease Inhibitors” (PLoS Pathogens, 2012)
Read-outs that look alike come from different tables or passages of the source.

Key:
[1] = test system: wild-type genotype 1a HCV Con1 luciferase reporter replicon in Huh7 cells; test: Viral replicon-based inhibition assay, wild-type; type: cell-based, HCV genotype 1a; settings: Hepatitis C virus, Huh-7, luciferase activity 96 hours after electroporation, read-out: Replicon - IC50, WT
Description: . The antiviral activities against the resistant variants trended with changes in binding affinities measured in enzyme inhibition assays (Table 1). […]. Single mutations (R155K, D168A, or A156T) were introduced into the NS3 region of genotype 1a HCV Con1 luciferase reporter replicon using the mega-primer method of mutagenesis. Replicon RNA of each protease variant was introduced into Huh7 cells by electroporation. […]. The drug concentrations required to inhibit replicon replication by 50% (IC50) were calculated directly from the drug inhibition curves.

[2] = test system: R155K genotype 1a HCV Con1 luciferase reporter replicon in Huh7 cells; test: Viral replicon-based inhibition assay, R155K variant; type: cell-based, HCV genotype 1a; settings: Hepatitis C virus, Huh-7, 96 h, read-out: Replicon - IC50, R155K
Description: (§1) Single mutations (R155K, D168A, or A156T) were introduced into the NS3 region of genotype 1a HCV Con1 luciferase reporter replicon using the mega-primer method of mutagenesis. Replicon RNA of each protease variant was introduced into Huh7 cells by electroporation.

[3] = test system: D168A genotype 1a HCV Con1 luciferase reporter replicon in Huh7 cells; test: Viral replicon-based inhibition assay, D168A variant; type: cell-based, HCV genotype 1a; settings: Hepatitis C virus, Huh-7, 96 h, read-out: Replicon - IC50, D168A
Description: as §1

[4] = test system: A156T genotype 1a HCV Con1 luciferase reporter replicon in Huh7 cells; test: Viral replicon-based inhibition assay, A156T variant; type: cell-based, HCV genotype 1a; settings: Hepatitis C virus, Huh-7, 96 h, read-out: Replicon - IC50, A156T
Description: as §1

[5] = target: genotype 1a HCV NS3/4A protease domain (wild-type) (Hepatitis C virus genotype 1a, UniProt A8DG50); test: biochemical; design: species or system HCV genotype 1a
[6] = target: T1, genotype 1a HCV NS3/4A protease domain A156T (Hepatitis C virus genotype 1a, UniProt P27958, A1182T); test: biochemical; design: species or system HCV genotype 1a
T1 construct: single-chain construct of the genotype 1a NS3/4A protease domain; His-tag (cleaved yes); made in house; host or cells: E. coli BL21 (DE3)

genotype 3 viruses = genotype 3 viruses (Q168, T123); cited from earlier work
[7] = apparent Ki, Morrison equation, 5 nM protease, triplicate, average ± standard deviation, read-out: Binding - Ki, WT

Compound | IC50 [1] [µM] | IC50 [2] [µM] | IC50 [3] [µM] | IC50 [4] [µM] | Ki [5] [µM] | Ki [5, 7] [µM] | Ki [6] [µM] | Efficacy against genotype 3 viruses (genotype 3 viruses)
CCC[C@H](NC(=O)[C@@H]1[C@H]2CCC[C@H]2CN1C(=O)[C@@H](NC(=O)[C@@H](NC(=O)c1cnccn1)C1CCCCC1)C(C)(C)C)C(=O)C(=O)NC1CC1 [Telaprevir (VX-950), Telaprevir] | 1.03 | 5.3 | 0.42 | > 50 | 0.0344 ± 0.003 | – | – | –
CC(C)(C)OC(=O)N[C@H]1CCCCC/C=C\[C@@H]2C[C@@]2(C(=O)NS(=O)(=O)C2CC2)NC(=O)[C@@H]2C[C@@H](OC(=O)N3Cc4cccc(F)c4C3)CN2C1=O [Danoprevir (ITMN-191), Danoprevir] | 0.00024 | > 0.1 | 0.048 | 0.0057 | – | 0.001 ± 0.0001 | 0.0448 ± 0.0036 | reduced efficacy
C=C[C@@H]1C[C@]1(NC(=O)[C@@H]1C[C@@H]2CN1C(=O)[C@H](C(C)(C)C)NC(=O)O[C@@H]1C[C@H]1CCCCCc1nc3ccc(OC)cc3nc1O2)C(=O)NS(=O)(=O)C1CC1 [MK-5172] | 0.00011 | 0.00055 | 0.013 | 0.108 | – | – | – | –
CC[C@@H]1C[C@]1(NC(=O)[C@@H]1C[C@@H]2CN1C(=O)[C@H](C(C)(C)C)NC(=O)OCC(C)(C)CCCCc1cccc3c1CN(C3)C(=O)O2)C(=O)NS(=O)(=O)C1CC1 [Vaniprevir (MK-7009), Vaniprevir] | 0.00034 | > 0.4 | > 0.4 | 0.176 | – | 0.00074 ± 7e-05 | – | reduced efficacy
